According to PMC10194981, “Chemosensory protein regulates the behavioural response of Frankliniella intonsa and Frankliniella occidentalis to tomato zonate spot virus–Infected pepper (Capsicum annuum)” (PLOS Pathogens, 2023):
“Also recorded” adds a separate entry of the source.

What was measured:
F. intonsa antennae = experiment: Electroantennogram (EAG) assay; design: species or system Frankliniella intonsa; settings: excised F. intonsa antennae
Protocol: The FintCSP1, FintCSP2, FintOBP, FintOR, FoccCSP, and enhanced green fluorescent protein (EGFP) coding sequences were obtained from GenBank under accession numbers MT199111, MT211602, OK067245, MT211603, AEP27186.1, and U55761.1, respectively. Primers were designed using Primer Premier 5.0, and the T7 promoter sequence (5′-[…]-3′) was added to the 5′ end of each primer (S1 Table). DNA fragments containing T7 promoter sequences were amplified by PCR using pEASY-T1/target gene or pUC-EGFP (preserved in the laboratory) plasmid DNA as template. Then, a double-stranded RNA (dsRNA) was produced from each target gene using the HiScribe T7 Quick High Yield RNA Synthesis Kit (New England Biolabs) according to the manufacturer’s instructions. Six hundred 2-day-old female F. intonsa or two hundred 2-day-old female F. occidentalis adults were anesthetized using CO2 and microinjected with 40 nL (3 μg/μL) dsRNA (dsFintCSP1 dsFintCSP2, dsFintOBP, dsFintOR or dsFoccCSP or dsEGFP) using a CellTram Oil microinjector (Eppendorf, Hamburg, Germany). The injected thrips were kept on broad beans in an artificial climate incubator as described above and used in subsequent RNAi experiments. Three biological replicates were conducted for each treatment with each dsRNA.
At 24 h after dsRNA injection, the electrophysiological responses of F. intonsa antennae to six volatile components (i.e., m-cymene, cis-3-hexenal, (+)-2-carene, trans-2-hexenal, α-phellandrene, and α-humulene) or F. occidentalis antennae to cis-3-hexenal were recorded using EAG. Antennae of female adult thrips were cut off at the base, and the distal terminus was carefully removed. The tested compounds were dissolved in liquid paraffin, with pure liquid paraffin used as a negative control. An Ag-AgCl2 glass electrode and Kaissling electrode solution were used in the experiment according to Tian et al.. The base of the antenna was inserted into the glass capillary filled with electrode solution at the end of the reference electrode; the top of the antenna was connected to the glass capillary at the end of the recording electrode to ensure no bubbles in the glass capillary. After successful connection, the antennae were stimulated with each chemical in the following order: liquid paraffin, volatile compounds, and liquid paraffin. Stimulus time was 0.2 s with each stimulus at 40 s intervals. At least 10 antennae were tested for each volatile compound. The EAG values to volatile compounds were calculated using the following equation: absolute value of EAG reaction = reaction value of the tested sample—average value of two control measurements.

F. intonsa = experiment: Y-tube olfactometer preference test; assay type: in vivo, Frankliniella intonsa; settings: volatile compound vs liquid paraffin control; n = 60
Protocol: F. intonsa and F. occidentalis preference tests of plant volatile cues were performed using a glass Y-tube olfactometer according to the method described by Wang et al. (2014) with minor modifications. A Y-shaped tube (1-cm inner diameter) consisted of a central tube (10 cm in length) and two arms (10 cm in length, offset by 60°) connected to two different glass odor bottles. One glass odor bottle was 50 cm in height, with a 10-cm inner diameter that contained pepper plants (14-day post-viral infection); the other glass odor bottle was 5 cm in height, with a 3-cm inner diameter for plant VOCs. The airflow in the olfactometer (200 mL/min) was filtered through activated carbon and calibrated using a flow meter at the end of each arm. To remove all visual cues, the Y-tube was positioned horizontally in a black airtight cubic box (90 cm × 60 cm × 40 cm). The tested odor sources (pepper plant VOCs) were enclosed in the odor bottles 5 min prior to each test to allow the odors to fill the arms. Thrips (2-day-old, starved for 1 h) were individually placed in the central tube and allowed to choose between the two arms. When the thrips had climbed over 2/3 of the side arm and stayed there for more than 30 s, it was considered to have made a selection. If the thrips had not made a choice after being placed in the straight arm for 5 min, the insect behaviour was scored as “no selection,” and it was not counted in the total data. The direction of the Y-tube arms and the silicone tubes were adjusted after five tested thrips to eliminate the influence of position. The Y-tube was replaced after 10 tested thrips to eliminate the possible influence of existing odors on thrips behaviour. Each treatment consisted of 20 thrips, with three replicates per treatment.
The FintCSP1, FintCSP2, FintOBP, FintOR, FoccCSP, and enhanced green fluorescent protein (EGFP) coding sequences were obtained from GenBank under accession numbers MT199111, MT211602, OK067245, MT211603, AEP27186.1, and U55761.1, respectively. Primers were designed using Primer Premier 5.0, and the T7 promoter sequence (5′-[…]-3′) was added to the 5′ end of each primer (S1 Table). DNA fragments containing T7 promoter sequences were amplified by PCR using pEASY-T1/target gene or pUC-EGFP (preserved in the laboratory) plasmid DNA as template. Then, a double-stranded RNA (dsRNA) was produced from each target gene using the HiScribe T7 Quick High Yield RNA Synthesis Kit (New England Biolabs) according to the manufacturer’s instructions. […]

[1] = biological target: recombinant wild-type FintCSP1 (Frankliniella intonsa, UniProt A0A891LVF4); experiment: Fluorescence (1-NPN) binding and competitive binding assay, wild-type FintCSP1
Chain of recombinant wild-type FintCSP1 (A0A891LVF4 entry or part of it): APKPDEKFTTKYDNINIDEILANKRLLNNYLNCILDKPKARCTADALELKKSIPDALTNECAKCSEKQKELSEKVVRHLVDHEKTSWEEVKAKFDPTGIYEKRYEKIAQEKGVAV
Protocol: (§1) FintCSP1 and FoccCSP DNA were released from pEASY-T1/FintCSP1 and pEASY-T1/FoccCSP, respectively, by restriction digestion with BamHI and XhoI and cloned into the pET-30a vector (Invitrogen). The resulting construct was transformed into Transetta (DE3) Escherichia coli competent cells (Transgen). The production of recombinant FintCSP1 and FoccCSP was induced by addition of isopropyl-β-D-1-thiogalactopyranoside (IPTG, 0.2 mM) at 15°C and purified by Ni ion affinity chromatography (Sangon Biotech, Shanghai, China). The target protein was verified by 15% SDS-PAGE, and its concentration was determined with a BCA protein assay kit (Thermo Scientific, Rockford, IL, USA). The recombinant purified protein was stored at −20°C until use.
(§2) The binding affinity of FintCSP1 and FoccCSP to the fluorescent probe N-phenyl-1-naphthylamine (1-NPN) was tested using a Spectramax M2 fluorescence spectrometer (Molecular Devices, USA) as reported previously. […] The 1-NPN/FintCSP1 or 1-NPN/FoccCSP mixture was excited at 280 nm, and the emission spectra were recorded at 415 nm. The binding constants (Kd) of FintCSP1 or FoccCSP to 1-NPN were calculated by Scatchard analysis using Prism 5 software (GraphPad, La Jolla, CA, USA). Assuming a protein activity of 100% and that the volatile compound binds to the protein in a 1:1 ratio at saturation, the dissociation constants (Ki) of FintCSP1 or FoccCSP for each ligand were calculated according to the IC50 (the concentration when the ligand replaces 50% of the probe) value of the volatile compounds. The Ki values were calculated according to the following equation: Ki = [IC50]/(1 + [1-NPN]/K1-NPN), where [1-NPN] is the free concentration of 1-NPN, and K1-NPN is the Kd of the 1-NPN/FintCSP1 or 1-NPN/FoccCSP.

FoccCSP-Val132Ala = FoccCSP-Val132Ala (Frankliniella occidentalis, UniProt G4Y3X1, V132A); experiment: Fluorescence (1-NPN) binding and competitive binding assay, FoccCSP mutant (negative control residue)
Chain of FoccCSP-Val132Ala (G4Y3X1 entry or part of it V132A): as the sequence (A0A891LVF4 entry or part of it) above, with D5E, I15V, A44N, A62M, V80A, D81E, H82K, T85E, Q109K, V113A counted along it
Protocol: (§3) The binding affinity of FintCSP1 and FoccCSP to the fluorescent probe N-phenyl-1-naphthylamine (1-NPN) was tested using a Spectramax M2 fluorescence spectrometer (Molecular Devices, USA) as reported previously. Volatile compounds and 1-NPN were first dissolved to a concentration of 1 mM in HPLC-grade methanol and dissolved to their indicated final concentration (2–20 μM) to titrate 2 μM protein solutions resuspended in 50 mM Tris-HCl (pH 7.4). The 1-NPN/FintCSP1 or 1-NPN/FoccCSP mixture was excited at 280 nm, and the emission spectra were recorded at 415 nm. The binding constants (Kd) of FintCSP1 or FoccCSP to 1-NPN were calculated by Scatchard analysis using Prism 5 software (GraphPad, La Jolla, CA, USA). Assuming a protein activity of 100% and that the volatile compound binds to the protein in a 1:1 ratio at saturation, the dissociation constants (Ki) of FintCSP1 or FoccCSP for each ligand were calculated according to the IC50 (the concentration when the ligand replaces 50% of the probe) value of the volatile compounds. The Ki values were calculated according to the following equation: Ki = [IC50]/(1 + [1-NPN]/K1-NPN), where [1-NPN] is the free concentration of 1-NPN, and K1-NPN is the Kd of the 1-NPN/FintCSP1 or 1-NPN/FoccCSP.
(§4) To verify the key amino acids of FintCSP1 and FoccCSP that bind to cis-3-hexenal, six amino acid residues of FintCSP1 were mutated (Lys26Ala, Phe27Ala, Thr28Ala, Glu67Ala, Ser84Ala, and the negative control residue Val132Ala) and nine amino acid residues of FoccCSP were mutated (Lys26Ala, Phe27Ala, Thr28Ala, Thr29Ala, Tyr31Ala, Asp64Ala, Glu67Ala, Gln87Ala, and the negative control residue Val132Ala) with the Fast Mutagenesis System Kit (Transgen Biotech, Beijing, China) using the pET-30a/FintCSP1 and pET-30a/FoccCSP plasmid DNA as template, respectively. Specific primers were designed using Primer Premier 5.0 according to the instructions of the Fast Mutagenesis System Kit (S1 Table). After validation by sequencing, each recombinant variant protein was produced and purified as described above, and their binding affinity to cis-3-hexenal was measured as described above.

FoccCSP-Asp64Ala = FoccCSP-Asp64Ala (Frankliniella occidentalis, UniProt G4Y3X1, D64A); experiment: Fluorescence (1-NPN) binding and competitive binding assay, FoccCSP mutant
Chain of FoccCSP-Asp64Ala (G4Y3X1 entry or part of it D64A): as the sequence (A0A891LVF4 entry or part of it) above, with D5E, I15V, A44N, D45A, A62M, V80A, D81E, H82K, T85E, Q109K counted along it
Protocol: as §2, §4

FoccCSP-Glu67Ala = FoccCSP-Glu67Ala (Frankliniella occidentalis, UniProt G4Y3X1, E67A); experiment: as above
Chain of FoccCSP-Glu67Ala (G4Y3X1 entry or part of it E67A): as the sequence (A0A891LVF4 entry or part of it) above, with D5E, I15V, A44N, E48A, A62M, V80A, D81E, H82K, T85E, Q109K counted along it
Protocol: as §2, §4

FoccCSP-Thr29Ala = FoccCSP-Thr29Ala (Frankliniella occidentalis, UniProt G4Y3X1, T29A); experiment: as above
Chain of FoccCSP-Thr29Ala (G4Y3X1 entry or part of it T29A): as the sequence (A0A891LVF4 entry or part of it) above, with D5E, T10A, I15V, A44N, A62M, V80A, D81E, H82K, T85E, Q109K counted along it
Protocol: as §2, §4

FoccCSP-Thr28Ala = FoccCSP-Thr28Ala (Frankliniella occidentalis, UniProt G4Y3X1, T28A); experiment: as above
Chain of FoccCSP-Thr28Ala (G4Y3X1 entry or part of it T28A): as the sequence (A0A891LVF4 entry or part of it) above, with D5E, T9A, I15V, A44N, A62M, V80A, D81E, H82K, T85E, Q109K counted along it
Protocol: as §2, §4

FoccCSP-Phe27Ala = FoccCSP-Phe27Ala (Frankliniella occidentalis, UniProt G4Y3X1, F27A); experiment: as above
Chain of FoccCSP-Phe27Ala (G4Y3X1 entry or part of it F27A): as the sequence (A0A891LVF4 entry or part of it) above, with D5E, F8A, I15V, A44N, A62M, V80A, D81E, H82K, T85E, Q109K counted along it
Protocol: as §2, §4

FintCSP1-Val132Ala = FintCSP1-Val132Ala (Frankliniella intonsa, UniProt A0A891LVF4, V132A); experiment: Fluorescence (1-NPN) binding and competitive binding assay, FintCSP1 mutant (negative control residue)
Chain of FintCSP1-Val132Ala (A0A891LVF4 entry or part of it V132A): as the sequence (A0A891LVF4 entry or part of it) above, with V113A counted along it
Protocol: as §3
as §4, with “Specific primers were designed using Primer Premier 5.0 according to the instructions of the Fast Mutagenesis System Kit (S1 Table).” left out

FintCSP1-Ser84Ala = FintCSP1-Ser84Ala (Frankliniella intonsa, UniProt A0A891LVF4, S84A); experiment: Fluorescence (1-NPN) binding and competitive binding assay, FintCSP1 mutant
Chain of FintCSP1-Ser84Ala (A0A891LVF4 entry or part of it S84A): as the sequence (A0A891LVF4 entry or part of it) above, with S65A counted along it
Protocol: as §3
as §4, with “Specific primers were designed using Primer Premier 5.0 according to the instructions of the Fast Mutagenesis System Kit (S1 Table).” left out

[2] = biological target: recombinant wild-type FoccCSP (Frankliniella occidentalis, UniProt G4Y3X1); experiment: Fluorescence (1-NPN) binding and competitive binding assay, wild-type FoccCSP
Chain of recombinant wild-type FoccCSP (G4Y3X1 entry or part of it): as the sequence (A0A891LVF4 entry or part of it) above, with D5E, I15V, A44N, A62M, V80A, D81E, H82K, T85E, Q109K counted along it
Protocol: as §1, §3

FoccCSP-Lys26Ala = FoccCSP-Lys26Ala (Frankliniella occidentalis, UniProt G4Y3X1, K26A); experiment: Fluorescence (1-NPN) binding and competitive binding assay, FoccCSP mutant
Chain of FoccCSP-Lys26Ala (G4Y3X1 entry or part of it K26A): as the sequence (A0A891LVF4 entry or part of it) above, with D5E, K7A, I15V, A44N, A62M, V80A, D81E, H82K, T85E, Q109K counted along it
Protocol: as §3, §4

FoccCSP-Gln87Ala = FoccCSP-Gln87Ala (Frankliniella occidentalis, UniProt G4Y3X1, Q87A); experiment: as above
Chain of FoccCSP-Gln87Ala (G4Y3X1 entry or part of it Q87A): as the sequence (A0A891LVF4 entry or part of it) above, with D5E, I15V, A44N, A62M, Q68A, V80A, D81E, H82K, T85E, Q109K counted along it
Protocol: as §3, §4

FoccCSP-Tyr31Ala = FoccCSP-Tyr31Ala (Frankliniella occidentalis, UniProt G4Y3X1, Y31A); experiment: as above
Chain of FoccCSP-Tyr31Ala (G4Y3X1 entry or part of it Y31A): as the sequence (A0A891LVF4 entry or part of it) above, with D5E, Y12A, I15V, A44N, A62M, V80A, D81E, H82K, T85E, Q109K counted along it
Protocol: as §3, §4

FintCSP1-Lys26Ala = FintCSP1-Lys26Ala (Frankliniella intonsa, UniProt A0A891LVF4, K26A); experiment: Fluorescence (1-NPN) binding and competitive binding assay, FintCSP1 mutant
Chain of FintCSP1-Lys26Ala (A0A891LVF4 entry or part of it K26A): as the sequence (A0A891LVF4 entry or part of it) above, with K7A counted along it
Protocol: as §2, §4

FintCSP1-Thr28Ala = FintCSP1-Thr28Ala (Frankliniella intonsa, UniProt A0A891LVF4, T28A); experiment: as above
Chain of FintCSP1-Thr28Ala (A0A891LVF4 entry or part of it T28A): as the sequence (A0A891LVF4 entry or part of it) above, with T9A counted along it
Protocol: as §2, §4

FintCSP1-Phe27Ala = FintCSP1-Phe27Ala (Frankliniella intonsa, UniProt A0A891LVF4, F27A); experiment: as above
Chain of FintCSP1-Phe27Ala (A0A891LVF4 entry or part of it F27A): as the sequence (A0A891LVF4 entry or part of it) above, with F8A counted along it
Protocol: as §2, §4

FintCSP1-Glu67Ala = FintCSP1-Glu67Ala (Frankliniella intonsa, UniProt A0A891LVF4, E67A); experiment: as above
Chain of FintCSP1-Glu67Ala (A0A891LVF4 entry or part of it E67A): as the sequence (A0A891LVF4 entry or part of it) above, with E48A counted along it
Protocol: as §2, §4

## CC1=CC[C@H](C(C)C)C=C1 (racemic) [α-phellandrene]
F. intonsa antennae; 10 mg/L in liquid paraffin
  EAG peak amplitude: –0.018 mV

## Cc1cccc(C(C)C)c1 [m-cymene]
F. intonsa
  preference of F. intonsa in Y-tube olfactometer (in words): appeared to repel F. intonsa, but this result was not statistically significant
F. intonsa antennae; 10 mg/L in liquid paraffin
  EAG peak amplitude: approximately –0.034 mV

## CC1=CC2C(CC1)C2(C)C (single isomer, unassigned; (+)) [(+)-2-carene]
F. intonsa antennae; 1 mg/L in liquid paraffin
  EAG peak amplitude: –0.016 mV

## CCC/C=C/C=O [trans-2-hexenal]
F. intonsa antennae; 1 mg/L in liquid paraffin
  EAG peak amplitude: –0.024 mV
[1]
  IC50: > 100 µM
  Ki: > 100 µM
[1]; wild-type FintCSP1, competitive fluorescence binding assay, classes of Ki
  binding affinity to FintCSP1 (in words): no FintCSP1 binding; also recorded: could not bind

## c1ccc(Nc2cccc3ccccc23)cc1 [1-NPN, N-phenyl-1-naphthylamine, reference compound]
FoccCSP-Val132Ala
  Kd: 7.26 ± 0.66 µM
FoccCSP-Asp64Ala
  Kd: 31 ± 4.55 µM
FoccCSP-Glu67Ala
  Kd: 15.7 ± 2.3 µM
FoccCSP-Thr29Ala
  Kd: 15.5 ± 1.74 µM
FoccCSP-Thr28Ala
  Kd: 19.9 ± 2.43 µM
FoccCSP-Phe27Ala
  Kd: 7.09 ± 0.39 µM
FintCSP1-Val132Ala
  Kd: 6.77 ± 0.36 µM
[1]
  Kd: 6.07 ± 0.4 µM
FintCSP1-Ser84Ala
  Kd: 3.48 ± 0.33 µM
[2]
  Kd: 6.36 ± 0.51 µM
FoccCSP-Lys26Ala
  Kd: 17.4 ± 1.32 µM
FoccCSP-Gln87Ala
  Kd: 20.3 ± 2.25 µM
FoccCSP-Tyr31Ala
  Kd: 9.79 ± 0.87 µM
FintCSP1-Lys26Ala
  Kd: 3.3 ± 0.39 µM
FintCSP1-Thr28Ala
  Kd: 3.85 ± 0.41 µM
FintCSP1-Phe27Ala
  Kd: 4.38 ± 0.49 µM
FintCSP1-Glu67Ala
  Kd: 4.5 ± 0.61 µM

## C/C1=C\CC/C(C)=C/CC(C)(C)/C=C/C1 [α-humulene]
F. intonsa antennae; 1 mg/L in liquid paraffin
  EAG peak amplitude: –0.024 mV
